Measurements taken from patent EP0412158A1, “ONCOSTATIC DRUG” (priority 1987, dated 1988).
Where “and” joins values, the source holds several entries; their conditions need not be identical. Equal entries are not always repeated. Where two headings read alike, the source gives them in different places. Marks after values point to notes of the source that are not given here.

Tests used:
[1] = test system: methyl cholanthrene A; assay: Methyl cholanthrene A tumor, evaluation by elongation of period of survival (Examples 31, 34 and 35); type: in vivo, female BALB/C mice; conditions: 100 mg/kg, ip × 9 (D1~D9)
Description: The active compounds, M to 0, mentioned above were severally dissolved in distilled water to obtain aqueous solutions containing the compounds in a fixed concentration of 10 mg/ml. To be specific, to female BALB/C mice (five weeks old) to which methyl cholanthrene A had been transplanted in a ratio of 1.0 x 10^5 cells per mouse, […] for 9 consecutive days to determine the mice's periods of survival. For comparison, mice to which no aqueous solution was administered and mice to which aminonitrosourea was administered were similarly tested.

[2] = test system: human lung cancer (OAT); type: in vivo, female ICR/cd-1 mice
Description: A patch of human lung cancer [cancer cells recommended by National Cancer Institute (NCI) of the U.S.A.] (OAT) measuring approximately 1 x 1 mm in area was transplanted beneath the hepatic capsule of each of female ICR/cd-1 mice (18 to 20 g) five to six weeks old (SRC method).
Then, an aqueous solution of 1% by weight of the aforementioned compound M was administered by intraperitoneal injection (ip) at a dose of 100 mg/kg and a dose of 200 mg/kg to the mice once per day for 5 consecutive days. The body weights of the mice and the sizes of tumor in the mice were measured on the 7th day, i.e. after one days interval following the stop of the administration to evaluate the effect of compound.

[3] = test system: methyl cholanthrene A tumor; assay: Antineoplastic activity against transplanted methyl cholanthrene A tumor, evaluation by size of tumor (Examples 1 to 6); type: in vivo, female BALB/C mice; conditions: for Average weight of tumor / Number of tumorless mice /total number of mice / Change in body weight / T/control: ip×9; for Change in body weight: body weight 13 days after transplantation; for T/control: tumor weight
Description: By dissolving alkylammonium salt of polymolybdic acid [NH3C3H7(iso)]s [Mo7O24] • 3H2O (Compound A) and other compounds (Compounds B to D) severally in distilled water, aqueous solutions containing the compounds in a fixed concentration of 10 mg/ml were obtained. These aqueous solutions were administered to female BALB/C mice (five weeks old) to which methyl cholanthrene A tumor had been transplanted to test the compounds for antineoplastic activity. To be specific, methyl cholanthrene A was transplanted to the mice in a ratio of 1.0 x 10^5 cells per mouse and the aqueous solutions were continuously administered to the mice by intraperitoneal injection ([…]) for nine days. On elapse of 14 days following the start of the administration, the tumors in the mice were measured. For comparison, mice to which no antineoplastic .drug was administered and mice to which aminonitroso urea was administered were tested by following the procedure described above.

[4] = test system: human breast cancer (MX-1); type: in vivo, female nude mice; conditions: for T/C: tumor volume
Description: A patch of human breast cancer [cancer cells recommended by National Cancer Institute (NCI) of U.S.A.] (MX-1) measuring approximately 2 x 2 mm in area was transplanted to female nude mice 5 weeks old. For 10 days following the 17th day of the transplantation, an aqueous solution containing 1% by weight of the aforementioned isopropylammonium polymolybdate (Compound A) was administered continuously at a dose of 100 mg/kg or 200 mg/kg once per day by intraperitoneal injection (ip). After the stop of the administration, the volume of tumor was measured daily for 15 or 20 days to evaluate the effect of the compound. With either of the dose of 100 mg/kg and the dose of 200 mg/kg, significant suppression of hyperplasia began to appear around the 6th day of administration of ip (x 10). Even after the stop of the administration (25th or 30th day), a distinct suppression of cancerous hyperplasia of about 70% was retained. Generally, by the NCI standard, a ratio of suppression exceeding 50% is rated as effective. […] For comparison, similar mice to which the human cancer was transplanted and the aqueous solution was not administered were tested by following the procedure described above.

Substance: Nas [IMo6O24] • 34H2O [Compound M]
- Average number of days of survival ±SE [1]: 42.57±5.77(7) days
- ILS [1]: 61.3%
- T/C ([2]; 100 mg/kg, IP 1~6 (except for 4)): 77.4%
- Tumorous activity T7/T0 ([2]; 100 mg/kg, IP 1~6 (except for 4), group mean): 2.00±0.20
- Tumorous activity T7/T0 ([2]; 100 mg/kg, IP 1~6 (except for 4), individual mice): 2.25 and 1.60 and 2.15
- Tumorous activity T7 ([2]; 100 mg/kg, IP 1~6 (except for 4), size of tumor on 7th day, individual mice): 22.5 omu and 16.0 omu and 21,5 omu
- antineoplastic activity ([2]; result in words): strong antineoplastic activity

Substance: [NH3C3H7(iso)]s (Mo7O24] • 3H2O [Compound A]
- toxicity ([3]; 200 mg/kg.ip for nine days, judged by increase of body weight, result in words): very low toxicity
- Average weight of tumor ([3]; No. 1, 100 mg/kg): 451.0 ± 84.7 mg
- Number of tumorless mice /total number of mice ([3]; No. 1, 100 mg/kg): 1/8
- Change in body weight ([3]; No. 1, 100 mg/kg): +2.50 (D1~D9) g
- T/control ([3]; No. 1, 100 mg/kg): 0.169
- Average weight of tumor ([3]; No. 2, 50 mg/kg): 1182.1±246.8(10) mg
- Number of tumorless mice /total number of mice ([3]; No. 2, 50 mg/kg): 0/10
- Change in body weight ([3]; No. 2, 50 mg/kg): +1.81 g
- T/control ([3]; No. 2, 50 mg/kg): 0.414
- Average weight of tumor ([3]; No. 2, 100 mg/kg): 563.9±99.1(9) mg
- Number of tumorless mice /total number of mice ([3]; No. 2, 100 mg/kg): 0/10
- Change in body weight ([3]; No. 2, 100 mg/kg): +1.97 g
- T/control ([3]; No. 2, 100 mg/kg): 0.198
- Average weight of tumor ([3]; No. 2, 200 mg/kg): 1211.8±227.6(8) mg
- Number of tumorless mice /total number of mice ([3]; No. 2, 200 mg/kg): 0/8
- Change in body weight ([3]; No. 2, 200 mg/kg): +1.81 g
- T/control ([3]; No. 2, 200 mg/kg): 0.424
- Average weight of tumor ([3]; No. 3, 50 mg/kg): 1606.0±163.5(8) mg
- Number of tumorless mice /total number of mice ([3]; No. 3, 50 mg/kg): 0/8
- Change in body weight ([3]; No. 3, 50 mg/kg): +1.68 g
- T/control ([3]; No. 3, 50 mg/kg): 0.624
- suppression of cancerous hyperplasia ([4]; 100 mg/kg and 200 mg/kg ip ×10, after the stop of the administration (25th or 30th day)): about 70%
- Volume of tumor ([4]; 100 mg/kg ip ×10, 0 day): 278.3±22.0 mm^3
- Volume of tumor ([4]; 100 mg/kg ip ×10, 1 day): 283.3±50.8 mm^3
- T/C ([4]; 100 mg/kg ip ×10, 1 day): 67.3%
- Volume of tumor ([4]; 100 mg/kg ip ×10, 2 day): 302.3±58.6 mm^3
- T/C ([4]; 100 mg/kg ip ×10, 2 day): 58.6%
- Volume of tumor ([4]; 100 mg/kg ip ×10, 3 day): 324.7±123.5 mm^3
- T/C ([4]; 100 mg/kg ip ×10, 3 day): 60.5%
- Volume of tumor ([4]; 100 mg/kg ip ×10, 4 day): 366.3±121.7 mm^3
- T/C ([4]; 100 mg/kg ip ×10, 4 day): 60.7%
- Volume of tumor ([4]; 100 mg/kg ip ×10, 5 day): 413.7±168.8 mm^3
- T/C ([4]; 100 mg/kg ip ×10, 5 day): 57.8%
- Volume of tumor ([4]; 100 mg/kg ip ×10, 6 day): 366.0±121.3 mm^3
- T/C ([4]; 100 mg/kg ip ×10, 6 day): 44.2** %
- Volume of tumor ([4]; 100 mg/kg ip ×10, 7 day): 302.7±173.5 mm^3
- T/C ([4]; 100 mg/kg ip ×10, 7 day): 33.3** %
- Volume of tumor ([4]; 100 mg/kg ip ×10, 9 day): 397.3±226.9 mm^3
- T/C ([4]; 100 mg/kg ip ×10, 9 day): 36.9* %
- Volume of tumor ([4]; 100 mg/kg ip ×10, 10 day): 406.7±202.6 mm^3
- T/C ([4]; 100 mg/kg ip ×10, 10 day): 29.7*** %
- Volume of tumor ([4]; 100 mg/kg ip ×10, 15 day): 734.0±524.0 mm^3
- T/C ([4]; 100 mg/kg ip ×10, 15 day): 33.3* %
- Volume of tumor ([4]; 100 mg/kg ip ×10, 19 day): 994.0±613.0 mm^3
- T/C ([4]; 100 mg/kg ip ×10, 19 day): 37.4* %
- Volume of tumor ([4]; 100 mg/kg ip ×10, 21 day): 1039.0±646.0 mm^3
- T/C ([4]; 100 mg/kg ip ×10, 21 day): 30.0* %
- Volume of tumor ([4]; 100 mg/kg ip ×10, 25 day): 1301.0±912.3 mm^3
- T/C ([4]; 100 mg/kg ip ×10, 25 day): 32.6* %
- Volume of tumor ([4]; 200 mg/kg ip ×10, 1 day): 371.8±10.8 mm^3
- Volume of tumor ([4]; 200 mg/kg ip ×10, 2 day): 439.8±56.9 mm^3
- Volume of tumor ([4]; 200 mg/kg ip ×10, 4 day): 518.8±54.7 mm^3
- T/C ([4]; 200 mg/kg ip ×10, 4 day): 62.1* %
- Volume of tumor ([4]; 200 mg/kg ip ×10, 5 day): 610.5±15.2 mm^3
- T/C ([4]; 200 mg/kg ip ×10, 5 day): 55.9* %
- Volume of tumor ([4]; 200 mg/kg ip ×10, 6 day): 656.8±25.7 mm^3
- T/C ([4]; 200 mg/kg ip ×10, 6 day): 62.9**** %
- Volume of tumor ([4]; 200 mg/kg ip ×10, 7 day): 759.3±84.3 mm^3
- T/C ([4]; 200 mg/kg ip ×10, 7 day): 54.5** %
- Volume of tumor ([4]; 200 mg/kg ip ×10, 8 day): 852.0±126.7 mm^3
- T/C ([4]; 200 mg/kg ip ×10, 8 day): 58.1* %
- Volume of tumor ([4]; 200 mg/kg ip ×10, 9 day): 695.7±29.6 mm^3
- T/C ([4]; 200 mg/kg ip ×10, 9 day): 42.4*** %
- Volume of tumor ([4]; 200 mg/kg ip ×10, 10 day): 759.7±21.1 mm^3
- T/C ([4]; 200 mg/kg ip ×10, 10 day): 41.9** %
- Volume of tumor ([4]; 200 mg/kg ip ×10, 11 day): 816.7±16.7 mm^3
- T/C ([4]; 200 mg/kg ip ×10, 11 day): 39.3** %
- Volume of tumor ([4]; 200 mg/kg ip ×10, 13 day): 1070.0±41.0 mm^3
- T/C ([4]; 200 mg/kg ip ×10, 13 day): 39.9*** %
- Volume of tumor ([4]; 200 mg/kg ip ×10, 16 day): 1110.0±21.0 mm^3
- T/C ([4]; 200 mg/kg ip ×10, 16 day): 34.5*** %
- Volume of tumor ([4]; 200 mg/kg ip ×10, 18 day): 1446.0±75.0 mm^3
- T/C ([4]; 200 mg/kg ip ×10, 18 day): 33.9*** %
- Volume of tumor ([4]; 200 mg/kg ip ×10, 19 day): 1405.0±159.8 mm^3
- T/C ([4]; 200 mg/kg ip ×10, 19 day): 29.9*** %
- Volume of tumor ([4]; 200 mg/kg ip ×10, 22 day): 1583.3±145.2 mm^3
- T/C ([4]; 200 mg/kg ip ×10, 22 day): 30.9*** %
- Volume of tumor ([4]; 200 mg/kg ip ×10, 25 day): 1708.0±243.2 mm^3
- T/C ([4]; 200 mg/kg ip ×10, 25 day): 29.2*** %
- Volume of tumor ([4]; 200 mg/kg ip ×10, 30 day): 2033.7±430.9 mm^3
- T/C ([4]; 200 mg/kg ip ×10, 30 day): 27.2*** %
